{"source": "PubChem BioAssay (NCI)", "assay_in_all_cases": "NCI anticancer screen, dose series, 48 h", "key": {"786-0 renal": {"test_system": "786-0 renal"}, "A498 renal": {"test_system": "A498 renal"}, "A549 NSCLC": {"test_system": "A549 NSCLC"}, "ACHN renal": {"test_system": "ACHN renal"}, "BT-549 breast": {"test_system": "BT-549 breast"}, "CCRF-CEM leukemia": {"test_system": "CCRF-CEM leukemia"}, "COLO 205 colon": {"test_system": "COLO 205 colon"}, "DU-145 prostate": {"test_system": "DU-145 prostate"}, "EKVX NSCLC": {"test_system": "EKVX NSCLC"}, "HCC-2998 colon": {"test_system": "HCC-2998 colon"}, "HCT-116 colon": {"test_system": "HCT-116 colon"}, "HCT-15 colon": {"test_system": "HCT-15 colon"}, "HL-60(TB) leukemia": {"test_system": "HL-60(TB) leukemia"}, "HOP-62 NSCLC": {"test_system": "HOP-62 NSCLC"}, "HOP-92 NSCLC": {"test_system": "HOP-92 NSCLC"}, "HT29 colon": {"test_system": "HT29 colon"}, "IGROV1 ovarian": {"test_system": "IGROV1 ovarian"}, "K-562 leukemia": {"test_system": "K-562 leukemia"}, "LOX IMVI melanoma": {"test_system": "LOX IMVI melanoma"}, "M14 melanoma": {"test_system": "M14 melanoma"}, "MALME-3M melanoma": {"test_system": "MALME-3M melanoma"}, "MCF7 breast": {"test_system": "MCF7 breast"}, "MDA-MB-231 breast": {"test_system": "MDA-MB-231 breast"}, "MDA-MB-435": {"test_system": "MDA-MB-435"}, "MDA-N": {"test_system": "MDA-N"}, "MOLT-4 leukemia": {"test_system": "MOLT-4 leukemia"}, "NCI-H226 lung": {"test_system": "NCI-H226 lung"}, "NCI-H23 lung": {"test_system": "NCI-H23 lung"}, "NCI-H460 lung": {"test_system": "NCI-H460 lung"}, "NCI/ADR-RES ovarian": {"test_system": "NCI/ADR-RES ovarian"}, "OVCAR-3 ovarian": {"test_system": "OVCAR-3 ovarian"}, "OVCAR-4 ovarian": {"test_system": "OVCAR-4 ovarian"}, "OVCAR-5 ovarian": {"test_system": "OVCAR-5 ovarian"}, "OVCAR-8 ovarian": {"test_system": "OVCAR-8 ovarian"}, "PC-3 prostate": {"test_system": "PC-3 prostate"}, "RPMI-8226 leukemia": {"test_system": "RPMI-8226 leukemia"}, "SF-268 CNS": {"test_system": "SF-268 CNS"}, "SF-295 CNS": {"test_system": "SF-295 CNS"}, "SK-MEL-28 melanoma": {"test_system": "SK-MEL-28 melanoma"}, "SK-MEL-5 melanoma": {"test_system": "SK-MEL-5 melanoma"}, "SK-OV-3 ovarian": {"test_system": "SK-OV-3 ovarian"}, "SN12C renal": {"test_system": "SN12C renal"}, "SNB-19 CNS": {"test_system": "SNB-19 CNS"}, "SNB-75 CNS": {"test_system": "SNB-75 CNS"}, "SR leukemia": {"test_system": "SR leukemia"}, "SW-620 colon": {"test_system": "SW-620 colon"}, "T-47D breast": {"test_system": "T-47D breast"}, "TK-10 renal": {"test_system": "TK-10 renal"}, "U251 CNS": {"test_system": "U251 CNS"}, "UACC-62 melanoma": {"test_system": "UACC-62 melanoma"}, "UO-31 renal": {"test_system": "UO-31 renal"}}, "note": "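Following 48 hours of exposure in 96-well plates, responses at five concentrations were used to interpolate endpoints linearly. TGI marks complete inhibition of growth.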", "data": [{"compound": "COC(=O)C1(Cc2cccc(Cl)c2)CCCCCCN1C(=O)c1ccccc1", "note": "(stereo unspecified)", "values": [{"measurement": "TGI", "setting": "786-0 renal", "result": 26.3, "unit": "µM"}, {"measurement": "TGI", "setting": "A498 renal", "result": 29, "unit": "µM"}, {"measurement": "TGI", "setting": "A549 NSCLC", "result": 33.6, "unit": "µM"}, {"measurement": "TGI", "setting": "ACHN renal", "result": 30, "unit": "µM"}, {"measurement": "TGI", "setting": "BT-549 breast", "result": 40.8, "unit": "µM"}, {"measurement": "TGI", "setting": "CCRF-CEM leukemia", "result": 31.6, "unit": "µM"}, {"measurement": "TGI", "setting": "COLO 205 colon", "result": 38.7, "unit": "µM"}, {"measurement": "TGI", "setting": "DU-145 prostate", "result": 37.7, "unit": "µM"}, {"measurement": "TGI", "setting": "EKVX NSCLC", "result": 26.8, "unit": "µM"}, {"measurement": "TGI", "setting": "HCC-2998 colon", "result": 27.5, "unit": "µM"}, {"measurement": "TGI", "setting": "HCT-116 colon", "result": 29.7, "unit": "µM"}, {"measurement": "TGI", "setting": "HCT-15 colon", "result": 25.3, "unit": "µM"}, {"measurement": "TGI", "setting": "HL-60(TB) leukemia", "result": 34.3, "unit": "µM"}, {"measurement": "TGI", "setting": "HOP-62 NSCLC", "result": 29, "unit": "µM"}, {"measurement": "TGI", "setting": "HOP-92 NSCLC", "result": 35.6, "unit": "µM"}, {"measurement": "TGI", "setting": "HT29 colon", "result": 32.1, "unit": "µM"}, {"measurement": "TGI", "setting": "IGROV1 ovarian", "result": 45.5, "unit": "µM"}, {"measurement": "TGI", "setting": "K-562 leukemia", "result": 59.8, "unit": "µM"}, {"measurement": "TGI", "setting": "LOX IMVI melanoma", "result": 32.8, "unit": "µM"}, {"measurement": "TGI", "setting": "M14 melanoma", "result": 45, "unit": "µM"}, {"measurement": "TGI", "setting": "MALME-3M melanoma", "result": 25.3, "unit": "µM"}, {"measurement": "TGI", "setting": "MCF7 breast", "result": 26.6, "unit": "µM"}, {"measurement": "TGI", "setting": "MDA-MB-231 breast", "result": 29, "unit": "µM"}, {"measurement": "TGI", "setting": "MDA-MB-435", "result": 51.8, "unit": "µM"}, {"measurement": "TGI", "setting": "MDA-N", "result": 30.4, "unit": "µM"}, {"measurement": "TGI", "setting": "MOLT-4 leukemia", "result": 32.1, "unit": "µM"}, {"measurement": "TGI", "setting": "NCI-H226 lung", "result": 48.8, "unit": "µM"}, {"measurement": "TGI", "setting": "NCI-H23 lung", "result": 51.1, "unit": "µM"}, {"measurement": "TGI", "setting": "NCI-H460 lung", "result": 33.8, "unit": "µM"}, {"measurement": "TGI", "setting": "NCI/ADR-RES ovarian", "result": 54.1, "unit": "µM"}, {"measurement": "TGI", "setting": "OVCAR-3 ovarian", "result": 20.4, "unit": "µM"}, {"measurement": "TGI", "setting": "OVCAR-4 ovarian", "result": 50.6, "unit": "µM"}, {"measurement": "TGI", "setting": "OVCAR-5 ovarian", "result": 44.7, "unit": "µM"}, {"measurement": "TGI", "setting": "OVCAR-8 ovarian", "result": 33.4, "unit": "µM"}, {"measurement": "TGI", "setting": "PC-3 prostate", "result": 17.4, "unit": "µM"}, {"measurement": "TGI", "setting": "RPMI-8226 leukemia", "result": 32.2, "unit": "µM"}, {"measurement": "TGI", "setting": "SF-268 CNS", "result": 42.1, "unit": "µM"}, {"measurement": "TGI", "setting": "SF-295 CNS", "result": 22.1, "unit": "µM"}, {"measurement": "TGI", "setting": "SK-MEL-28 melanoma", "result": 31.7, "unit": "µM"}, {"measurement": "TGI", "setting": "SK-MEL-5 melanoma", "result": 26.6, "unit": "µM"}, {"measurement": "TGI", "setting": "SK-OV-3 ovarian", "result": 42.8, "unit": "µM"}, {"measurement": "TGI", "setting": "SN12C renal", "result": 28.1, "unit": "µM"}, {"measurement": "TGI", "setting": "SNB-19 CNS", "result": 31.2, "unit": "µM"}, {"measurement": "TGI", "setting": "SNB-75 CNS", "result": 29.6, "unit": "µM"}, {"measurement": "TGI", "setting": "SR leukemia", "result": 39.8, "unit": "µM"}, {"measurement": "TGI", "setting": "SW-620 colon", "result": 36, "unit": "µM"}, {"measurement": "TGI", "setting": "T-47D breast", "result": 37.4, "unit": "µM"}, {"measurement": "TGI", "setting": "TK-10 renal", "result": 29.5, "unit": "µM"}, {"measurement": "TGI", "setting": "U251 CNS", "result": 29.7, "unit": "µM"}, {"measurement": "TGI", "setting": "UACC-62 melanoma", "result": 28.5, "unit": "µM"}, {"measurement": "TGI", "setting": "UO-31 renal", "result": 29.3, "unit": "µM"}]}]}
